# Patent US20070213359A1 (ACADIA Pharmaceuticals Inc., priority 2005, published 2007)
# Like-named read-outs stand apart in the source and are kept apart here.
# Target: Ghrelin receptor (Homo sapiens, UniProt Q92847)
# Assay: Receptor Selection and Amplification Technology (R-SAT) assay
# Format: cell-based
# Design: expressed in transfected cells; host or cells: NIH3T3
# Conditions: for IC50: '—' not defined (nd used separately), read-out: RSAT pIC50 (converted); for Emax: read-out: RSAT Eff(%)
# [1] = negative logarithm of ligand concentration causing 50% inhibition of constitutive receptor response, transfected NIH3T3 cells
# [2] = percent inhibition at saturating ligand, normalized to reference ligand Substance P analog = 100%
# Sequence of Ghrelin receptor (Q92847 whole entry): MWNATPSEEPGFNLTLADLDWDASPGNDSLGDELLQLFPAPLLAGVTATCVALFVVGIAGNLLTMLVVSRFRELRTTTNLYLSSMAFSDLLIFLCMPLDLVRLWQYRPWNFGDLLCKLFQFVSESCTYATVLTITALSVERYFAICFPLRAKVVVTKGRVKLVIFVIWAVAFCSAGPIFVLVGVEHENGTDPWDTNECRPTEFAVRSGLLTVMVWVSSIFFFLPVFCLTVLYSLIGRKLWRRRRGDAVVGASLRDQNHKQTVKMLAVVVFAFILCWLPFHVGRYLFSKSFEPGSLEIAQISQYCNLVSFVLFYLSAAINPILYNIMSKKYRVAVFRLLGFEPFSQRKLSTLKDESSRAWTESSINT
Structure (SMILES),IC50 [1] [nM],Emax [2] [%],IC50 ([…]) [nM],Emax [%],RSAT Eff(%)
CC(=O)CCc1cn(CCCN2CCN(C(C)c3ccccc3)CC2)c2ccccc12 (centres unmarked),2000,46,–,–,–
CCCCC1CCN(CCCCn2cc(C(C)=O)c3ccccc32)CC1,–,–,794,113,–
CC(=O)c1cn(CCCN2CCCN(Cc3ccc(F)cc3)CC2)c2c(C)cccc12,–,–,2.51,95,–
CCCOC1CCN(CC(C)Cn2cc(C(C)=O)c3ccccc32)CC1 (centres unmarked),631,74,–,–,–
COc1ccc2c(C(C)=O)cn(CCCN3CCC(C(=O)c4ccccc4)CC3)c2c1,794,66,–,–,–
COc1ccc2c(C(C)=O)cn(CCCN3CCC(C(C)c4ccccc4)CC3)c2c1 (centres unmarked),3160,73,–,–,–
CCc1cccc2c(C(C)=O)cn(CCCN3CCN(CCOc4ccc(Cl)c5ccccc45)CC3)c12,–,–,–,29,–
CCCCC1CCN(CCCn2cc(C(C)=O)c3ccc(OC)cc32)CC1,631,63,–,–,–
CCCCC1CCN(CCCn2cc(C(=O)C(F)(F)F)c3ccccc32)CC1,501,74,–,–,–
CCc1cccc2c(C(C)=O)cn(CCCN3CCN(CCOc4ccccc4)CC3)c12,39.8,110,–,–,–
CCCOC1CCN(CCn2cc(C(C)=O)c3ccccc32)CC1,–,–,3160,40,–
O=C(NCc1cccc(Cl)c1)c1cn(CCCN2CCC(Oc3ccc(F)cc3)CC2)c2ccccc12.O=C(O)C(=O)O [drawing 596],–,–,–,–,142
CC(=O)c1cn(CCCNC2Cc3ccccc3C2)c2c(C)cccc12,–,–,158,70,–
CC(=O)c1cn(CCCN2CCC3(CC2)CC(=O)c2ccccc2O3)c2c(Cl)cccc12,–,–,–,40,–
COc1cccc2c(C(=O)Cc3ccccc3)cn(CCCN3CCC(c4nc(-c5ccncc5)no4)CC3)c12,–,–,25.1,137,–
COc1cccc2c(C(C)=O)cn(CC(C)CN3CCN(CCOc4ccccc4)CC3)c12 (centres unmarked),–,–,–,-7,–
CC(=O)c1cn(CC(O)CN2CCC(C(=O)c3ccccc3)CC2)c2ccccc12 (centres unmarked),6310,26,–,–,–
CC(=O)c1cn(CCCCN2CCC(c3nc4ccccc4s3)CC2)c2ccccc12,398,81,–,–,–
CC(=O)c1cn(CCCN2CCC(Oc3cccc(Cl)c3)CC2)c2c(C)cccc12,10,96,–,–,–
COc1cccc2c(C(=O)C3CC3)cn(CCCNCCOc3ccccc3)c12,–,–,15.8,83,–
CC(=O)c1cn(CCCN2C3CCC2CC(Oc2ccc(Cl)cc2)C3)c2cc(Br)ccc12 (centres unmarked),10000,74,–,–,–
CC(=O)c1cn(CCCN2CCCC(Cc3ccccc3Cl)C2)c2c(Cl)cccc12 (centres unmarked),–,–,–,47,–
CC(=O)c1cn(CCCN2CCCC(Oc3ccc(Cl)cc3)C2)c2c(C#N)cccc12 (centres unmarked),–,–,–,31,–
CC(C)CC(=O)c1cn(CCCN2C3CCC2CC(OC2=CC=C(Cl)CC2)C3)c2ccccc12 (centres unmarked),158,–,–,137,–
CCCOC1CCN(CCCn2cc(C(C)=O)c3ccc(OC)cc32)CC1,1260,61,–,–,–
COc1ccccc1C1CCN(CCCn2cc(C(=O)NCc3cccc(Cl)c3)c3cccc(OC)c32)CC1,–,–,631,127,–
COc1cccc2c(C(=O)C3CC3)cn(CCCNC3Cc4ccccc4C3)c12,–,–,25.1,97,–

Structure (SMILES),IC50 [1] [nM],Emax [2] [%],IC50 ([…]) [nM],Emax [%],RSAT Eff(%)
COc1cccc2c(C(=O)NCC(C)C)cn(CCCN3C4CCC3CC(CCc3ccccc3)C4)c12 (centres unmarked),–,–,15.8,86,–
COc1cccc2c(C(=O)NCc3cccc(C)c3)cn(CCCN3CCC(c4nc(-c5ccncc5)no4)CC3)c12,–,–,15.8,121,–
CCCOC1CCN(CC(O)Cn2cc(C(C)=O)c3ccccc32)CC1 (centres unmarked),31600,18,–,–,–
O=C(c1cn(CCCN2CCN(Cc3ccc(Cl)cc3Cl)CC2)c2ncccc12)C(F)(F)F,126,78,–,–,–
CCC(=O)c1cn(CCCN2C3CCC2CC(O)(c2ccc(F)cc2)C3)c2ccccc12 (centres unmarked),–,–,–,18,–
COc1cccc2c(C(=O)NCC(C)C)cn(CCCN3CCN(CCOc4ccccc4)CC3)c12,–,–,126,118,–
CC(=O)c1cn(CCCN2CCC(N3C(=O)Cc4ccccc43)CC2)c2c(C)cccc12,–,–,12600,–,69
O=C(c1cn(CCCN2C3CCC2CC(O)(c2ccc(F)cc2)C3)c2ccccc12)C(F)(F)F (centres unmarked),251000,58,–,–,–
CC(=O)c1cn(CCCN2C3CCC2CC(Oc2ccccc2Cl)C3)c2c(C)cccc12 (centres unmarked),794,101,–,–,–
COc1cccc2c(C(=O)C3CC3)cn(CCCN3CCC4(CC3)CC(=O)c3ccccc3O4)c12,–,–,3.98,106,–
CCCON1CCN(CCCn2cc(C(=O)C(F)(F)F)c3ccccc32)CC1,251,99,–,–,–
CC(=O)c1cn(CC(O)CN2CCC(Oc3ccc(F)cc3)CC2)c2ccccc12 (centres unmarked),200,74,–,–,–
COc1cccc2c(C(=O)NCc3cccc(Cl)c3)cn(CCCN3CCC(c4nc(-c5ccncc5)no4)CC3)c12,–,–,31.6,105,–
CCCCC(=O)c1cn(CCCN2CCC(c3ccccc3OC)CC2)c2ccc(OC)cc12,316,101,–,–,–
CCc1cccc2c(C(C)=O)cn(CCCN3CCCC(Cc4ccccc4Cl)C3)c12 (centres unmarked),20,87,–,–,–
CCCCC1CCN(CC(C)Cn2cc(C(C)=O)c3ccccc32)CC1 (centres unmarked),2000,76,–,–,–
O=C(c1cn(CCCN2C3CCC2CC(Oc2ccc(Cl)cc2)C3)c2ccccc12)C(F)(F)F (centres unmarked),251,97,–,–,–
CC(=O)CCc1cn(CCCN2C3CCC2CC(OCC2CC2)C3)c2ccccc12 (centres unmarked),3160,103,–,–,–
CC(=O)c1c(C)n(CCCN2CCCC(Cc3ccccc3Cl)C2)c2c(Br)cccc12 (centres unmarked),–,–,–,5,–
COc1cccc2c(C(=O)c3ccccc3)cn(CCCN3C4CCC3CC(CC(=O)c3ccc(Cl)cc3)C4)c12 (centres unmarked),–,–,251,143,–
COc1cccc2c(C(=O)C3CC3)cn(CCCN3CCC(CCOc4ccc(Cl)cc4)CC3)c12,–,–,316,89,–
COc1cccc2c(C(=O)NCC(C)C)cn(CCCN3CCCC(Oc4ccc(Cl)cc4)C3)c12 (centres unmarked),–,–,–,9,–
CC(=O)c1cn(CCCN2CCC(c3nc4ccccc4s3)CC2)c2ccccc12 [drawing 462],100,115,–,–,–
COc1ccccc1C1CCN(CCn2cc(C(C)=O)c3ccccc32)CC1,–,–,5010,44,–
CC(=O)c1cn(CCCN2CCN(CCOc3ccccc3)CC2)c2c(C#N)cccc12,31.6,86,–,–,–
CC(=O)c1cn(CCCN2CCC(Cc3ccccc3Cl)C2)c2c(C)cccc12 (centres unmarked),–,–,–,47,–
CC(=O)c1cn(CCCN2CCCN(CCc3ccccc3)CC2)c2c(Cl)cccc12,10,96,–,–,–

Structure (SMILES),IC50 [1] [nM],Emax [2] [%],IC50 ([…]) [nM],Emax [%],RSAT Eff(%)
CCN(CC)C(=O)C1CCCN(CCCn2cc(C(C)=O)c3cccc(OC)c32)C1 (centres unmarked),–,–,–,16,–
CC(=O)c1cn(CCCN2CCCC(Cc3ccccc3Cl)C2)c2c(Br)cccc12 (centres unmarked),–,–,–,-18,–
CC(=O)c1cn(CCCN2CCCN(CCc3ccccc3)CC2)c2ncccc12,251,84,–,–,–
CC(=O)c1cn(CCCN2CCN(Cc3ccc(Cl)cc3Cl)CC2)c2c(C)cccc12,158,120,–,–,–
COc1ccc2c(c1)c(C(C)=O)cn2CCCN1CCC(c2ccccc2OC)CC1,2000,66,–,–,–
O=C(c1cn(CCCN2CCC(Oc3ccc(Cl)cc3)CC2)c2ccccc12)C(F)(F)F,1580,77,–,–,–
COc1cccc2c(C(=O)NCc3cccc(Cl)c3)cn(CCCN3CCC(c4nc(-c5cccnc5)no4)CC3)c12,–,–,20,103,–
CC(=O)c1cn(CCCNC2Cc3ccccc3C2)c2c(Cl)cccc12,6310,96,–,–,–
COc1cccc2c(C(=O)C3CC3)cn(CCCN3CCC(c4nc(-c5ccncc5)no4)CC3)c12,–,–,20,87,–
CC(=O)c1cn(CCCN2CCCN(Cc3ccc(F)cc3)CC2)c2ncccc12,5.01,136,–,–,–
O=C(c1cn(CCCN2CCN(c3ncc(C(F)(F)F)cc3Cl)CC2)c2ncccc12)C(F)(F)F,–,27,–,–,–
COc1cccc2c(C(=O)Cc3ccccc3)cn(CCCN3CCC4(CC3)CC(=O)c3ccccc3O4)c12,–,–,79.4,98,–
COc1cccc2c(C(=O)c3ccccc3)cn(CCCN3CCC(C(=O)c4ccccc4)CC3)c12,–,–,501,102,–
CC(=O)c1cn(CCCN2CCC(c3nc(-c4ccncc4)no3)CC2)c2c(C)cccc12,31.6,137,–,–,–
COc1ccc2[nH]c3c(c2c1)CCN(CCCn1cc(C(C)=O)c2ccccc21)C3,–,76,794,–,–
CC(=O)c1c(C)n(CCCN2CCN(CCOc3ccccc3)CC2)c2c(Br)cccc12,1260,57,–,–,–
CCCCC[C@H]1C[C@H]2CC[C@@H](C1)N2CCCn1cc(C(C)=O)c2cccc(Cl)c21,–,–,316,72,–
COc1cccc2c(C(=O)c3ccccc3)cn(CCCN3CCCC(Oc4ccc(Cl)cc4)C3)c12 (centres unmarked),–,–,–,48,–
CCC(=O)c1cn(CCCN2CCC(Oc3ccc(F)cc3)CC2)c2ccccc12,794,90,–,–,–
CC(=O)c1cn(CC(C)CN2C3CCC2CC(OCC2CC2)C3)c2ccccc12 (centres unmarked),398,65,–,–,–
CC(=O)c1cn(CCCCN2CCC(Oc3ccccc3Cl)CC2)c2ccccc12,–,–,398,46,–
COc1cccc2c(C#N)cn(CCCN3CCCC(Oc4ccc(Cl)cc4)C3)c12 (centres unmarked),–,48,–,–,–
CC(CN1CCC2(CC1)CC(=O)c1ccccc1O2)Cn1cc(C(=O)C(F)(F)F)c2cccnc21 (centres unmarked),–,26,–,–,–
CC(=O)c1cn(CCCN2CCC(N3C(=O)Cc4ccccc43)CC2)c2c(Cl)cccc12,–,–,–,–,28
COc1cccc2c(C(=O)NCC(C)C)cn(CCCN3CCC4(CC3)CC(=O)c3ccccc3O4)c12,–,–,12.6,115,–
COc1cccc2c(C(=O)NCC(C)C)cn(CCCN3CCC(c4nc(-c5cccnc5)no4)CC3)c12,–,–,63.1,93,–
